{
  "source": "patent US20110092445A1",
  "about": "“Amyloid ß peptide analogues, oligomers thereof, processes for preparing and composi-tions comprising said analogues or oligomers, and their uses” (Abbott Laboratories, priority 2008, published 2011)",
  "key": {"[1]": {"tested_on": "Aβ globulomer-specific antibody 7C6", "experiment": "Dot blot analysis with monoclonal antibody 7C6", "format": "binding, murine", "settings": "FIG. 8A", "text": "(§1) 1. (14C, 37C) N-Met Aβ(1-42) oligomer of example 4a 2. Thermolysin truncated (14C, 37C) N-Met Aβ(1-42) oligomer of example 5a 3. (15C, 36C) N-Met Aβ(1-42) oligomer of example 4b 4. Thermolysin truncated (15C, 36C) N-Met Aβ(1-42) oligomer of example 5b 5. (16C, 35C) N-Met Aβ(1-42) oligomer of example 4c 6. Thermolysin truncated (16C, 35C) N-Met Aβ(1-42) oligomer of example 5c 7. (17C, 34C) N-Met Aβ(1-42) oligomer of example 4d 8) Thermolysin truncated (17C, 34C) N-Met Aβ(1-42) oligomer of example 5d 9. (18C, 33C) N-Met Aβ(1-42) oligomer of example 4e 10. Thermolysin truncated (18C, 33C) N-Met Aβ(1-42) oligomer of example 5e 11. (19C, 32C) N-Met Aβ(1-42) oligomer of example 4f 12. Thermolysin truncated (19C, 32C) N-Met Aβ(1-42) oligomer of example 5f 13. (20C, 31C) N-Met Aβ(1-42) oligomer of example 4g 14. Thermolysin truncated (20C, 31C) N-Met Aβ(1-42) oligomer of example 5g 15. (21C, 30C) N-Met Aβ(1-42) oligomer of example 4h 16. Thermolysin truncated (21C, 30C) N-Met Aβ(1-42) oligomer of example 5h 17. (22C, 29C) N-Met Aβ(1-42) oligomer of example 4i 18. Thermolysin truncated (22C, 29C) N-Met Aβ(1-42) oligomer of example 5i 19. Aβ(1-42) globulomer of example 4j 20. Aβ(1-42) thermolysin truncated globulomer of example 5j\n(§2) • Serial dilution of Aβ antigens in columns 1-20 in 20 mM NaH2PO4, 140 mM NaCl, pH 7.4+0.2 mg/ml BSA • 1) 10 pmol/μl • 2) 1 pmol/μl • 3) 0.1 pmol/μl • 4) 0.01 pmol/μl • 5) 0.001 pmol/μl\n(§3) • TBS • 25 mM Tris/HCl-buffer pH 7.5 • +150 mM NaCl • TTBS • 25 mM Tris/HCl-buffer pH 7.5 • +150 mM NaCl • +0.05% Tween 20 • PBS+0.2 mg/ml BSA • 20 mM NaH2PO4 buffer pH 7.4 • +140 mM NaCl • +0.2 mg/ml BSA\n(§4) • Either Rabbit sera samples or mouse monoclonal antibodies were used as Antibody solution I and prepared as in the following: • Rabbit sera samples (1:200 diluted in 20 ml 1% low fat milk in TBS) • Mouse monoclonal antibodies (diluted to 0.2 μg/ml in 20 ml 1% low fat milk in TBS)\n(§5) • In the case Antibody solution I was Rabbit sera samples then Antibody solution II was Anti-Rabbit-AP. […]"}, "[2]": {"tested_on": "polyclonal rabbit serum 5599", "experiment": "Dot blot analysis with rabbit polyclonal antibody 5599", "format": "binding", "settings": "FIG. 8B; serum shows high general background", "text": "as §1, §2, §3, §4, §5"}, "[3]": {"tested_on": "Aβ globulomer epitope specific antibody 7C6", "experiment": "Immunoprecipitation with 7C6-Dynabeads and SELDI-MS detection", "format": "binding, murine", "method": "(§6) A: Activation of Dynabeads with Monoclonal Mouse Antibodies • The stock-suspension of dynabeads (Dynabeads M-280 Sheep anti-Mouse IgG, Invitrogen; Cat. no.: 112.02) was shaken carefully to prevent foaming. • 1 mL was aseptically removed and transferred to a 1.5 mL reaction vial. • The dynabeads were washed 3 times 5 min with 1 mL immunoprecipitation (IP)-wash buffer (IP-wash-buffer: PBS (20 mM NaH2PO4, 140 mM NaCl, pH 7.4), 0.1% BSA). During the washing procedure the supernatant was carefully removed while the dynabeads were immobilized at the side of the reaction vial with a magnetic separator stand (MSS). • The washed dynabeads were incubated with 40 μg Aβ antibody in 1 mL PBS, 0.1% BSA • The activation was carried out by overnight incubation under shaking at 4° C. • The activated dynabeads were washed 4 times 30 min (again using the MSS) with 1 mL IP-wash buffer (PBS (20 mM NaH2PO4, 140 mM NaCl, pH 7.4), 0.1% BSA). • The activated dynabeads were resuspended with 1 mL PBS, 0.1% BSA, 0.02% NaAzide; vortexed and centrifuged briefly. • The antibody activated dynabeads were stored at 4° C. until further use. […]"}, "[4]": {"tested_on": "Aβ globulomer epitope specific antibody 10F11", "experiment": "Immunoprecipitation with 10F11-Dynabeads and SELDI-MS detection", "format": "binding, murine", "settings": "FIG. 10A/10B; isotype controls IgG2a, IgG2b", "method": "as §6"}, "[5]": {"tested_on": "Alzheimer Disease transgenic mice", "settings": "active immunization, cited from earlier work"}},
  "note": "Bridges are numbered along the chain shown (N, C = ends). Where no end group is shown, it is not given here.",
  "data": [
    {"substance": "Thermolysin truncation of Aβ(1-42) globulomer [example 5j]", "values": [
      {"measurement": "recognition by Aβ globulomer-specific antibody 7C6 in dot blot", "setting": "[1]", "value": "comparable recognition"},
      {"measurement": "recognition by polyclonal rabbit serum 5599 in dot blot", "setting": "[2]", "value": "comparable recognition"}
    ]},
    {"substance": "Disulfide-stabilized (17C, 34C) ARO 6-35)-amide oligomer (KCVFFAEDVGSNKGAIIGCM-NH2; disulfide 2-19; also: oligomer; UniProt P05067 687-706, looked up, variant L17C L34C) [example 4p]", "values": [
      {"measurement": "recognition by 7C6 (immunoprecipitation, SELDI-MS)", "setting": "[3]; FIG. 10A/10B, isotype controls IgG2a, IgG2b", "value": "recognized"},
      {"measurement": "presence of the Aβ globulomer epitope (conclusion from immunoprecipitation)", "setting": "[3]; immunoprecipitation with 7C6 and 10F11", "value": "contained the Aβ globulomer epitope"},
      {"measurement": "recognition by 10F11 (immunoprecipitation, SELDI-MS)", "setting": "[4]", "value": "recognized"}
    ]},
    {"substance": "Thermolysin truncation of disulfide-stabilized (15C, 36C) N-Met Aβ(1-42) oligomer [example 5b]", "values": [
      {"measurement": "recognition by Aβ globulomer-specific antibody 7C6 in dot blot", "setting": "[1]", "value": "only recognized by the polyclonal rabbit serum 5599"},
      {"measurement": "recognition by polyclonal rabbit serum 5599 in dot blot", "setting": "[2]", "value": "recognized by the polyclonal rabbit serum 5599"}
    ]},
    {"substance": "Aβ(1-42) globulomer [example 4j]", "values": [
      {"measurement": "recognition by Aβ globulomer-specific antibody 7C6 in dot blot", "setting": "[1]", "value": "do not detect"},
      {"measurement": "recognition by polyclonal rabbit serum 5599 in dot blot", "setting": "[2]", "value": "do not detect"}
    ]},
    {"substance": "Aβ(20-42) truncated globulomer: obtained by subjecting an Aβ(1-42) globulomer to thermolysin proteolysis (FAEDVGSNKGAIIGLMVGGVVIA; also: truncated globulomer)", "values": [
      {"measurement": "reversal of deficits in novel object recognition task", "setting": "[5]; AD transgenic mouse models", "value": "proven to reverse deficits in novel object recognition task"},
      {"measurement": "reversing cognitive defects in Alzheimer Disease transgenic mice", "setting": "[5]", "value": "effective in reversing cognitive defects"}
    ]}
  ]
}
